Results as given in patent publication US20140357512A1, “HISTONE DEACETYLASE (HDAC) BIOMARKERS IN MULTIPLE MYELOMA” (priority 2013, published 2014).

Tested on: human myeloma cell line MM.1S
Experiment: SILAC acetylated-lysine peptide profiling, HDAC inhibitor vs DMSO (light/heavy ratio)
Assay type: cell-based
Text: An embodiment of the invention comprises utilizing the SILAC method in order to quantitate changes in protein expression between two or more populations of cells. The SILAC method is a technique based on mass spectrometry that detects differences in protein abundance among samples using non-radioactive isotopic labeling. The SILAC method is known in the art, and described in detail in Ong et al., “Stable Isotope Labeling by Amino Acids in Cell Culture, SILAC, as a Simple and Accurate Approach to Expression Proteomics”, Molecular & Cellular Proteomics, vol. 1, pp. 376-386 (2002), which is incorporated herein by reference in its entirety.
Briefly, the SILAC method involves growing two populations of cells in cell culture. The first population of cells is grown in growth media containing normal amino acids (“normal media”). The second population of cells is grown in media lacking a standard essential amino acid (such as lysine), but is then supplemented with a non-radioactive, isotopically labeled form of that essential amino acid (such as lysine labeled with ^13C atoms, rather than normal ^12C atoms), which is called “heavy media”. When the two populations of cells are each growing in the medium, they incorporate the amino acids into all of their proteins. The growth of cells maintained in the heavy media is no different from that in normal media. All peptides containing the heavy amino acids are heavier than their normal counterparts. The cells from each of the two populations of cells are lysed. The lysates from each of the two cell populations are then combined. The combined cell lysates are then analyzed by mass spectrometry. Pairs of chemically identical peptides of different stable isotope composition can be differentiated in a mass spectrometer due to their difference in mass. The ratio of peak intensities in the mass spectrum for such peptide pairs reflects the abundance ratio for the two proteins.
This example describes SILAC studies that were performed to compare the effects of three different HDAC inhibitors (Compound A, Compound B, and tubastatin A) to a control on a human multiple myeloma cell line. The HDAC inhibitors were also compared amongst themselves to determine differences in their effects.
A human myeloma cell line MM.1S was grown using either ^12C (light) or ^13C (heavy) lysine containing culture medium. The “heavy” cells were treated with DMSO as the control, and the “light” cells were treated with a single HDAC inhibitor at 37° C. for 6 hours. The heavy and light cells were lysed, and the lysates were mixed in 1:1 ratio and digested with the protease trypsin. The acetylated lysine containing peptides (due to the action of the HDAC inhibitor) in the digested peptide pool were captured by a non-specific anti-acetylated lysine antibody cocktail (the antibodies identify both light and heavy acetylated peptides), and subjected to mass spectrometry analysis in order to identify thousands of individual peptides.
Thousands of peptides were identified in pairs (^12C and ^13C) due to their known mass differences. The amino acid sequence and quantitative ratio (Light/Heavy) of a given peptide in two differentially treated cell lysates were then determined and annotated with their possible protein (gene) sources.
As stated above, three HDAC inhibitors (Compound A, Compound B, and Tubastatin A) were used. Thus, the SILAC method was performed three times, with a different HDAC inhibitor compared to a control each time. Accordingly, there are three pairs of quantitative data in the table below, i.e., Compound A:DMSO, Compound B:DMSO, and Tubastatin A:DMSO. A cut-off of 1.30 fold of change (increase or decrease) was then used to determine “changed” or “+” in the table, and any peptides with a fold of change less than 1.3 fold were determined to be “unchanged” or “0” in the table. Those peptides that were not identified were marked as “NA” in the table. […]

SMILES: O=C(NO)c1cnc(NC2(c3cccc(F)c3)CCCCC2)nc1 [Compound B, 2-((1-(3-fluorophenyl)cyclohexyl)amino)-N-hydroxypyrimidine-5-carboxamide]
- L/H ratio of acetylated peptide (VETFSGVYK(ac)K (SEQ ID NO: 445), 40S ribosomal protein S7 [178], RPS7): −0.78 log 2
- L/H ratio of acetylated peptide (VEWAK(ac)FQER (SEQ ID NO: 447), Splicing factor 3A subunit 1 [251], SF3A1): −0.55 log 2
- light to heavy ratio (L/H ratio) of acetylated peptide, log 2 scale (VGIVGK(ac)YGTR (SEQ ID NO: 250), 60S ribosomal protein L37a [13], RPL37A): 0.00
- L/H ratio of acetylated peptide (VIIVVK(ac)DGPGFYTTR (SEQ ID NO: 401), Trifunctional enzyme subunit alpha mitochondrial [540], HADHA): −0.70 log 2
- L/H ratio of acetylated peptide TNEK(ac)VELQELNDR (SEQ ID NO: 122) (VIM [104], log 2 scale, drug vs DMSO): 0.00
- L/H ratio of acetylated peptide FANYIDK(ac)VR (SEQ ID NO: 118) (VIM [120], log 2 scale, drug vs DMSO): 0.00
- L/H ratio of acetylated peptide […](ac)GQGK (SEQ ID NO: 119) (VIM [139], log 2 scale, drug vs DMSO): 0.00
- L/H ratio of acetylated peptide SK(ac)[…] (SEQ ID NO: 121) (VIM [294], log 2 scale, drug vs DMSO): 0.00
- L/H ratio of acetylated peptide LQDEIQNMK(ac)EEMAR (SEQ ID NO: 120) (VIM [373], log 2 scale, drug vs DMSO): 0.00
- light to heavy ratio (L/H ratio) of acetylated peptide, log 2 scale (VVVGK(ac)[…] (SEQ ID NO: 193), Protein disulfide-isomerase A4 [533], PDIA4): 0.00
- L/H ratio of acetylated peptide (VYISK(ac)CYR (SEQ ID NO: 394), Isoform 1 of Regulator of micro-tubule dynamics protein 3 [426], FAM82A2): −0.85 log 2
- light to heavy ratio (L/H ratio) of acetylated peptide TLLIK(ac)TVETR (SEQ ID NO: 269) (Vimentin [445], VIM, drug:DMSO): 0.00 log 2
- L/H ratio of acetylated peptide (WTPEVK(ac)[…] (SEQ ID NO: 442), Rho-related GTP-binding protein RhoC [104], RHOC): −0.39 log 2
- light to heavy ratio (L/H ratio) of acetylated peptide IAAYK(ac)SILQER (SEQ ID NO: 531) (X-ray repair cross-complementing protein 5 [265], gene XRCC5, inhibitor:DMSO): 0.00 log 2
- light to heavy ratio (L/H ratio) of acetylated peptide EEAIK(ac)FSEEQR (SEQ ID NO: 509) (X-ray repair cross-complementing protein 5 [648], gene XRCC5, inhibitor:DMSO): 0.00 log 2
- light to heavy ratio (L/H ratio) of acetylated peptide […](ac)HFQD (SEQ ID NO: 355) (X-ray repair cross-complementing protein 6 [605], XRCC6, drug:DMSO): −0.74 log 2
- L/H ratio of acetylated peptide ALQEK(ac)VEIK (SEQ ID NO: 123) (XRCC5 [665], log 2 scale, drug vs DMSO): 0.00
- L/H ratio of acetylated peptide (YHVSEK(ac)PYGIVEK (SEQ ID NO: 424), NADH dehydrogenase [ubiquinone] 1 beta subcomplex subunit 6 [93], NDUFB6): −1.00 log 2
- L/H ratio of acetylated peptide (YK(ac)[…] (SEQ ID NO: 417), Microsomal glutathione S-transferase 3 [37], MGST3): −0.59 log 2
- light to heavy ratio (L/H ratio) of acetylated peptide, log 2 scale (YLENGK(ac)ETLQR (SEQ ID NO: 163), Putative HLA class I histocompatibility antigen alpha chain H [200], HLA-H): 0.00
- light to heavy ratio (L/H ratio) of acetylated peptide, log 2 scale (YNCDK(ac)MICR (SEQ ID NO: 254), Ubiquitin-605 ribosomal protein L40 [93], UBA52): 0.00
- L/H ratio of acetylated peptide (YPPPYK(ac)HFWTAES (SEQ ID NO: 461), Isoform 2 of Ubiquitin-associated protein 2-like [976], UBAP2L): −0.50 log 2
- L/H ratio of acetylated peptide (YTEQITNEK(ac)LAMVK (SEQ ID NO: 423), NADH dehydrogenase [ubiquinone] 1 alpha subcomplex subunit 5 [55], NDUFA5): −0.40 log 2
- light to heavy ratio (L/H ratio) of acetylated peptide, log 2 scale ([…](ac)AAVR (SEQ ID NO: 220), Tricarboxylate transport protein mitochondrial [97], SLC25A1): 0.00
- light to heavy ratio (L/H ratio) of acetylated peptide, log 2 scale ([…](ac)DETEFR (SEQ ID NO: 137), UPF0568 protein C14orf166 [20], C14orf166): 0.00
- L/H ratio of acetylated peptide ([…](ac)DGEIYCK (SEQ ID NO: 383), Cysteine and glycine-rich protein 1 [161], CSRP1): −0.67 log 2
- L/H ratio of acetylated peptide ([…](ac)EKLNER (SEQ ID NO: 406), 60 kDa heat shock protein mitochondrial [387], HSPD1): 0.40 log 2
- L/H ratio of acetylated peptide ([…](ac)FDENAK (SEQ ID NO: 429), Phosphoglycerate kinase 1 [291], PGK1): 0.60 log 2
- L/H ratio of acetylated peptide ([…](ac)FIAR (SEQ ID NO: 441), Protein RCC2 [293], RCC2): 0.75 log 2
- light to heavy ratio (L/H ratio) of acetylated peptide, log 2 scale ([…](ac)FSDDHYR (SEQ ID NO: 190), NAD(P) transhydrogenase mitochondrial [100], NNT): 0.00
- L/H ratio of acetylated peptide ([…](ac)FVER (SEQ ID NO: 460), cDNA FLJ40024 fis clone STOMA2007745 highly similar to UBIQUITIN-[…] E1 [119], UBA1): 0.44 log 2
- L/H ratio of acetylated peptide ([…](ac)GDSK(ac)NAK (SEQ ID NO: 392), Histone acetyltransferase p300 [1542:1546], EP300): 0.53 log 2
